Reference: patent US20100080790A1, “STERILIZATION USING HIGH-PRESSURE CARBON DIOXIDE” (University of South Carolina, priority 2005, published 2010)
Where “and” joins values, the source holds several entries; their conditions need not be identical. Identical values can stand only once. Entries after “also recorded” stand apart in the source; their conditions may differ. Like-named read-outs stand apart in the source and are kept apart here.

Assays:
[1] = test system: B. pumilus ATCC 27142 spores; experiment: Log reduction of B. pumilus spores on spore strips treated with high-pressure/supercritical CO2 with or without additives, colony counting; type: cell-based
[2] = test system: B. atrophaeus ATCC 9372 spores
[3] = test system: B. anthracis ΔSterne-1 spores
[4] = test system: Vegetative G. stearothermophilus cells; conditions: 1.5-hour exposure, 28 bar, 25 °C; cited from earlier work
Lactobacillus plantarum = conditions: high-pressure CO2 treatment, suspension in distilled water at pH 6.0; cited from earlier work
[5] = test system: G. stearothermophilus spores; conditions: cited from earlier work
[6] = additive with CO2, conditions of Table 2
[7] = additive with CO2, 40 °C, 276 bar, 4 hr

In the case of `CCO` [70% ETHANOL, ethanol], the “effectiveness of additive in deactivating B. pumilus spores (in words)” value [1, 6] is reported as “Neither bulk water, 5 μL of 70% ethanol, nor 5 μL of 70% isopropanol resulted in the required log reduction”, the “LOG REDUCTION” value [1, 7] is reported as 0.27 ± 0.16 log and the “effectiveness of additive (in words)” value ([1]; dense-phase CO2, at 40 °C) is reported as “neither bulk water, nor ethanol, nor isopropanol were effective additives”.

In the case of `OO` [30% H2O2, hydrogen peroxide], the “LOG REDUCTION” value [1] is reported as 4.47 ± 0.64 log and 4.60 ± 0.02 log and 6.28 ± 0.46 log and 4.45 ± 0.31 log, the “deactivation in replicate experiments (in words)” value [1] is reported as “complete deactivation in two of the three replicate experiments” and the “effectiveness of additive in deactivating B. pumilus spores (in words)” value [1] is reported as “highly effective; also recorded: the most effective additive among the additives examined”. It also gave a Log reduction [2] of 6.25 and a Log reduction [3] of 5.74.

In the case of `O` [BULK WATER, water], the “effectiveness of additive (in words)” value [1] is reported as “neither bulk water, nor ethanol, nor isopropanol were effective additives” and the “effectiveness of additive in deactivating B. pumilus spores (in words)” value [1] is reported as “Neither bulk water, 5 μL of 70% ethanol, nor 5 μL of 70% isopropanol resulted in the required log reduction”.

With `CC(C)O` [70% ISOPROPANOL, isopropanol] the “effectiveness of additive in deactivating B. pumilus spores (in words)” value [1, 6] was “Neither bulk water, 5 μL of 70% ethanol, nor 5 μL of 70% isopropanol resulted in the required log reduction”, the “LOG REDUCTION” value [1, 7] was 0.17 ± 0.06 log and the “effectiveness of additive (in words)” value ([1]; dense-phase CO2, at 40 °C) was “neither bulk water, nor ethanol, nor isopropanol were effective additives”.

With `O=C=O` [CO2, carbon dioxide] the log reduction [1] was 3.90 log, the “LOG REDUCTION” value ([1]; wetted spore strips with CO2, 4 hr, 103 bar, 60 °C) was 1.91 ± 0.23 log and the “LOG REDUCTION” value ([1]; wetted spore strips with CO2, 4 hr, 276 bar, 50 °C) was 0.58 ± 0.04 log. For the same compound, the “LOG REDUCTION” value ([1]; wetted spore strips with CO2, 4 hr, 276 bar, 60 °C) was 3.06 ± 0.17 log, the “LOG REDUCTION” value ([1]; wetted spore strips with CO2, 4 hr, 276 bar, 80 °C) was 3.02 ± 0.07 log and the “log reduction of vegetative cells” value [4] was “more than 6 log”. For the same compound, the log reduction (Lactobacillus plantarum) was “more than 7 log” and the spores remained viable [5] was 80%.
